One data set has as its target T1, human FXR (Homo sapiens, UniProt Q96RI1).
T1 construct: characterized in a full-length (fl) FXR reporter gene assay in HeLa cells; expressed in transfected cells; host or cells: HeLa
T1 sequence (Q96RI1 1-486): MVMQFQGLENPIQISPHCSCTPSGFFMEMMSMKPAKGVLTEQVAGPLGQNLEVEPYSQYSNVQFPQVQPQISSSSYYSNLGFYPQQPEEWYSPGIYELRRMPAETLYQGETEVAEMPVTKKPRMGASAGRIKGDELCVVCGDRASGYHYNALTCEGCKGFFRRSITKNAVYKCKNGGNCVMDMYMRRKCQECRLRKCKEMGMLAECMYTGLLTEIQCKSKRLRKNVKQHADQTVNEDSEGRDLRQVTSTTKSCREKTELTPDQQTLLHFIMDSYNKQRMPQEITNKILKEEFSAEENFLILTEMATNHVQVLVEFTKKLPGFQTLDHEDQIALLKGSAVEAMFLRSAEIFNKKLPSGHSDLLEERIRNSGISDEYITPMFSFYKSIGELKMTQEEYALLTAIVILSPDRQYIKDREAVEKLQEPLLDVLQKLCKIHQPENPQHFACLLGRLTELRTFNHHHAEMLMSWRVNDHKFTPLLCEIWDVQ
T1 sequence (P19793 1-462 partner): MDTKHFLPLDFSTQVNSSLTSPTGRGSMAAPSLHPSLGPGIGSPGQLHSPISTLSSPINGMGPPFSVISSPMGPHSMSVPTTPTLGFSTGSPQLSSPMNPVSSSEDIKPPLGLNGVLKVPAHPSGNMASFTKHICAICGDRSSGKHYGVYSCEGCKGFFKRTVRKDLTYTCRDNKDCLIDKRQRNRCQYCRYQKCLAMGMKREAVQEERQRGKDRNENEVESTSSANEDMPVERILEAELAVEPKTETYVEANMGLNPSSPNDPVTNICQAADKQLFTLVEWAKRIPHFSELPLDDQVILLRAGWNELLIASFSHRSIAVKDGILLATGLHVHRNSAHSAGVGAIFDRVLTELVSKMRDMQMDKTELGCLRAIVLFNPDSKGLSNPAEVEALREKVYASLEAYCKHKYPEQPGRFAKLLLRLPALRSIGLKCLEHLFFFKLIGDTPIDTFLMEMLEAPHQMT
As to the kind of experiment: full-length FXR reporter gene (transactivation) assay in HeLa cells. The format is cell-based. As to conditions: for Emax: HeLa, read-out: FXR activation max. rel. activation (converted); for EC50: full-length FXR reporter gene assay, HeLa cells, read-out: FXR activation EC50. The source says:
(§1) This assay is based on a reporter construct containing a firefly luciferase under the control of the FXR response element from bile salt export protein (BSEP). FXR and its hetero dimer partner retinoid X receptor (RXR) as expression constructs under the control of a CMV promoter as well as a constitutively expressed renilla luciferase (SV40 promoter) for normalization and toxicity control were co-transfected. […] The sEH inhibitory potency of the test compounds was quantified in a fluorescence-based assay using recombinant enzyme and the fluorogenic sEH substrate PHOME^37 that is hydrolyzed to a fluorescent 6-methoxynaphtaldehyde by sEH.
Plasmids: pcDNA3-hFXR contains the sequence of human FXR and was already published elsewhere.^47 pGL3 basic (Promega Corporation, Fitchburg, Wis., USA) was used as a reporter plasmid, with a shortened construct of the promotor of the bile salt export protein (BSEP) cloned into the SacI/NheI cleavage site in front of the luciferase gene.^48 pRL-V40 (Promega) was transfected as a control for normalization of transfection efficiency and cell growth. pSG5-hRXR was already published elsewhere as well.^49
Assay procedure: HeLa cells were grown in DMEM high glucose supplemented with 10% FCS, sodium pyruvate (1 mM), penicillin (100 U/mL) and streptomycin (100 μg/mL) at 37° C. and 5% CO2. […] Transient transfection of HeLa cells with BSEP-pGL3, pRL-SV40 and the expression plasmids pcDNA3-hFXR and pSG5-hRXR was carried out using calcium phosphate transfection method. […] Each concentration was tested in triplicate wells and each experiment was repeated independently at least three times. […] Luminescence was measured with a Tecan Infinite M200 luminometer (Tecan Deutschland GmbH, Crailsheim, Germany). Normalization of transfection efficiency and cell growth was done by division of firefly luciferase data by renilla luciferase data multiplied by 1000 resulting in relative light units (RLU). Fold activation was obtained by dividing the mean RLU of the tested compound at a respective concentration by the mean RLU of untreated control. […] EC50 and standard error of the mean values were calculated with the mean relative activation values of at least three independent experiments by SigmaPlot 10.0 (Systat Software GmbH, Erkrath, Germany) using a four parameter logistic regression.
A general note: Reporter assays use an easily measured gene product as a stand-in for the process of interest.

In data set [1] the target is T2, cellular sEH (HepG2 cell homogenates) (Homo sapiens, UniProt P34913).
T2 sequence (P34913 1-555): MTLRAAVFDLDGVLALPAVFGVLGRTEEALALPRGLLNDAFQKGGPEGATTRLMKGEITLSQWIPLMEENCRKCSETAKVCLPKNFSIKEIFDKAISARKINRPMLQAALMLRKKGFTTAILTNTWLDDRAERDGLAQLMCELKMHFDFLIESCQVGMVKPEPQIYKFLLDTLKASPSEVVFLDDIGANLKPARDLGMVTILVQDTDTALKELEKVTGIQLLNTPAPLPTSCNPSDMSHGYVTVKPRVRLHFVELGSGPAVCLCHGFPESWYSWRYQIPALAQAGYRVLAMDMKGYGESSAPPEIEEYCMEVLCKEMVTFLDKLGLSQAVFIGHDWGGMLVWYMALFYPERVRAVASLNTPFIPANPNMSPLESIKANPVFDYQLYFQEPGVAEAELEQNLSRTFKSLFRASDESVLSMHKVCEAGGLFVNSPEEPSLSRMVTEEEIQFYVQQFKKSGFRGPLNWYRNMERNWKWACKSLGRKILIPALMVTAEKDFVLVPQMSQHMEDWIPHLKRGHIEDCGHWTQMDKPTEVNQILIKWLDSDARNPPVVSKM
Particulars: 10 μM (positive control); DMSO 63±16, blank 499±123.
Experimental: 25 ng (+)14(15)-EET-d11 (Cayman Chemical, Ann Arbor, USA) was added and incubation was continued for additional to min at 37° C. A blank test was performed with PBS (containing 0.1 mg/ml BSA) treated likewise. The reactions were stopped by adding 100 μl of ice cold methanol. After centrifugation (2000 rpm, 4° C., 5 min), supernatants were analyzed by LC-MS/MS and the amounts of (±)14(15)-EET-d11 and the corresponding (±)14(15)-DHET-d11 were determined.

The next data set deals with T3, recombinant human sEH (Homo sapiens, UniProt P34913).
T3 sequence (P34913 1-555): T2 sequence (P34913 1-555)
As to the kind of experiment: fluorescence-based sEH activity assay with PHOME substrate. Particulars: for inhibition at 50 µM: read-out: sEH % inhibition at indicated conc.; for IC50: recombinant human sEH, PHOME, read-out: sEH inhibition IC50. The format is biochemical.
Excerpt: as §1
The sEH inhibitory potency of the compounds were determined in a fluorescence-based 96-well sEH activity assay using recombinant human enzyme^50,51. Non-fluorescent PHOME (3-phenylcyano-(6-methoxy-2-naphthalenyl)methyl ester 2-oxiraneacetic acid; Cayman Chemicals) which can be hydrolyzed by the sEH to fluorescent 6-methoxynaphthaldehyde served as substrate. Recombinant human sEH (in Bis-Tris buffer, pH 7, with 0.1 mg/mL BSA containing a final concentration of 0.01% Triton-X 100) was pre-incubated with test compounds (in DMSO, final DMSO concentration: 1%) for 30 min at room temperature. […] A blank control (no protein and no compound) as well as a positive control (no compound) were executed. All experiments were conducted in triplicate and repeated in at least three independent experiments. For IC50 calculation, dose-response curves of increasing compound concentrations were recorded.

The nature of another data set: aqueous solubility. The class given is physicochemical. As to conditions: LLOQ 0.1 μg/mL.
The subject of data set [2] is PPARγ target genes CD36 and FAM3A. Description: PPARγ target gene mRNA quantification (qRT-PCR) in HepG2 cells. The format is cell-based. As to conditions: HepG2, 1 μM.

The structures appear in SMILES notation.

What is called inhibition is the share of the control response that was lost under treatment. Usually IC50 stands for the point on the concentration scale where inhibition reaches its midpoint. The EC50 is the concentration giving half of the maximal effect. By aqueous solubility is commonly meant the dissolved amount per volume that the medium holds. A low value points to little dissolved substance.

For the compound `O=C(Nc1ccc(I)cc1)NC1CCCCC1` [CIU, reference compound], the “activity in FXR reporter gene assay” value at human FXR (10 μM) is listed as “no activity”. In addition, the “(±)14(15)-EET-d11/(±)14(15)-DHET-d11 ratio” value in data set [1] was found to be 519±55.
As to `CC(C)(C)c1ccc(C(=O)NCc2ccc(C(=O)O)c(Cl)c2)cc1` [compound 28], at recombinant human sEH, the inhibition at 50 µM is 50 ± 1%. Further, the Emax at human FXR was 21%.
Take `CC(NC(=O)c1ccc(C(C)(C)C)cc1)c1ccc(C(=O)O)cc1` (stereo not drawn) [compound 32]: on recombinant human sEH, the inhibition at 50 µM was 37 ± 1%. Further, at human FXR, the Emax is 24%.
Turning to `CSc1ccc(CNC(=O)c2ccc(C(C)(C)C)cc2)cc1` [compound 51], the IC50 at recombinant human sEH was about 100 nM. For the same compound, on human FXR, the Emax was 33% and the EC50 is about 100 nM.
Regarding `CC(C)(C)c1ccc(C(=O)NCc2ccc(NC(=O)C(F)(F)F)cc2Cl)cc1` [compound 56], the Emax on human FXR was 21%. In “aqueous solubility”, the aqueous solubility is under 0.1 µg/mL.
As to `CC(C)(C)c1ccc(C(=O)NCc2ccc(NS(C)(=O)=O)cc2Cl)c(O)c1` [compound 77, 4-(tert-Butyl-2-hydroxy)-N-(2-chloro-4-(methylsulfonamido)benzyl)benzamide], the IC50 on recombinant human sEH came out at 380 ± 50 nM. The “FXR activation (result in words)” value at human FXR was “antagonistic”.
For `CC(C)(C)c1ccc(C(=O)NCc2ccc(NS(C)(=O)=O)cc2Cl)cc1O` [compound 78, 4-(tert-Butyl-3-hydroxy)-N-(2-chloro-4-(methylsulfonamido)benzyl)benzamide], the IC50 on recombinant human sEH came to 16 ± 0.6 nM. On human FXR, the Emax is 24% and the EC50 stood at 3 ± 0.001 nM.
For the compound `CC(C)(C)c1ccc(C(=O)NCc2ccc(NS(C)(=O)=O)cc2C(F)(F)F)cc1` [compound 80, 4-(tert-Butyl)-N-(2-trifluoromethyl-4-(methylsulfonamido)benzyl)benzamide], on recombinant human sEH, the IC50 worked out at 2 ± 0.08 nM. On human FXR, the Emax is 19% and the EC50 was 1200 ± 180 nM.
For the compound `CC(C)S(=O)(=O)Nc1ccc(CNC(=O)c2ccc(C(C)(C)C)cc2)c(Cl)c1` [compound 81, 4-(tert-Buty)-N-(2-chloro-4-(isopropylsulfonamide)benzyl)-benzamide], on recombinant human sEH, the IC50 is 11 ± 0.3 nM. On human FXR, the Emax is 11% and the EC50 came out at 420 ± 20 nM.
For `CCS(=O)(=O)Nc1ccc(CNC(=O)c2ccc(C(C)(C)C)cc2)c(Cl)c1` [compound 82, 4-(tert-Butyl)-N-(2-chloro-4-(ethylsulfonamido)benzyl)-benzamide] the same measures were 6 ± 0.5 nM, 23% and 490 ± 50 nM.
For `CN(C)c1ccc(C(=O)NCc2ccc(NS(C)(=O)=O)cc2Cl)cc1` [compound 83, 4-(Dimethylamino)-N-(2-chloro-4-(methylsulfonamido)benzyl)benzamide] the same measures were 45 ± 2 nM, 23% and 1460 ± 23 nM.
Consider `CS(=O)(=O)Nc1ccc(CNC(=O)c2ccc(C3(C(F)(F)F)CC3)cc2)c(Cl)c1` [compound 84, 4-((1-Trifluoromethyl)cycloprop-1-yl)-N-(2-chloro-4-(methylsulfonamido)benzyl)benzamide], for which, on recombinant human sEH, the IC50 came to 4 ± 0.4 nM. Besides, on human FXR, the Emax is 31% and the EC50 is 540 ± 20 nM.
`CCc1ccc(CCOc2ccc(CC3SC(=O)NC3=O)cc2)nc1` (stereo not drawn) [pioglitazone, reference compound]: in data set [2], the “CD36 mRNA expression compared to vehicle set as 100%” value is 353±43% and the “FAM3A mRNA expression compared to vehicle set as 100%” value is 310±66%.

The record behind these values is patent US20200172473A1, “DUAL MODULATORS OF FARNESOID X RECEPTOR AND SOLUBLE EPOXIDE HYDROLASE” (JOHANN WOLFGANG GOETHE-UNIVERSITÄT FRANKFURT AM MAIN, priority 2017, published 2020).
